From patent US12686673B2 (Blueprint Medicines Corporation, priority 2020, dated 2026)
Like-named read-outs stand apart in the source and are kept apart here.

How the values were obtained:
Format in all cases: cell-based
A431 cells = experiment: Cellular proliferation (Alamar Blue) assay, A431
[1] = target: EGFR(D770_N771insSVD) expressing Ba/F3 stable cell line (Homo sapiens, UniProt P00533, DUP768-770, cells depend on it); experiment: Cellular proliferation (Alamar Blue) assay, EGFR D770_N771insSVD Ba/F3; details: 72 hr, read-out: D770 IC50
Method in brief: (§1)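 Steps: plate 15,000 Ba/F3 cells/well in RPMI/10% FBS; rest 16-18 h, 37 °C; add compound at final 10-0.0005 μM (3-fold series) or DMSO; incubate 72 hr; add Alamar Blue; read after 3 h.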

[2] = target: EGFR (A767_dupASV) expressing Ba/F3 stable cell line (Homo sapiens, UniProt P00533, DUP767-769, cells depend on it); experiment: Cellular proliferation (Alamar Blue) assay, EGFR A767_dupASV Ba/F3; details: 72 hr, read-out: A767 IC50
Method in brief: as §1

[3] = target: HER2 (A775_G776insYVMA) expressing Ba/F3 stable cell line (Homo sapiens, UniProt P04626, DUP772-775, cells depend on it); experiment: Cellular proliferation (Alamar Blue) assay, HER2 A775_G776insYVMA Ba/F3; details: 72 hr, read-out: YVMA IC50
Method in brief: as §1

[4] = Homo sapiens, A-431; A431 cells, Alamar Blue, 72 hr; read-out: A431 IC50
[5] = Homo sapiens, A-431; A431 cells, 72 hr, Alamar Blue; read-out: A431 IC50

Chain of HER2 (A775_G776insYVMA) expressing Ba/F3 stable cell line (P04626 with tags, fused parts or gaps DUP772-775): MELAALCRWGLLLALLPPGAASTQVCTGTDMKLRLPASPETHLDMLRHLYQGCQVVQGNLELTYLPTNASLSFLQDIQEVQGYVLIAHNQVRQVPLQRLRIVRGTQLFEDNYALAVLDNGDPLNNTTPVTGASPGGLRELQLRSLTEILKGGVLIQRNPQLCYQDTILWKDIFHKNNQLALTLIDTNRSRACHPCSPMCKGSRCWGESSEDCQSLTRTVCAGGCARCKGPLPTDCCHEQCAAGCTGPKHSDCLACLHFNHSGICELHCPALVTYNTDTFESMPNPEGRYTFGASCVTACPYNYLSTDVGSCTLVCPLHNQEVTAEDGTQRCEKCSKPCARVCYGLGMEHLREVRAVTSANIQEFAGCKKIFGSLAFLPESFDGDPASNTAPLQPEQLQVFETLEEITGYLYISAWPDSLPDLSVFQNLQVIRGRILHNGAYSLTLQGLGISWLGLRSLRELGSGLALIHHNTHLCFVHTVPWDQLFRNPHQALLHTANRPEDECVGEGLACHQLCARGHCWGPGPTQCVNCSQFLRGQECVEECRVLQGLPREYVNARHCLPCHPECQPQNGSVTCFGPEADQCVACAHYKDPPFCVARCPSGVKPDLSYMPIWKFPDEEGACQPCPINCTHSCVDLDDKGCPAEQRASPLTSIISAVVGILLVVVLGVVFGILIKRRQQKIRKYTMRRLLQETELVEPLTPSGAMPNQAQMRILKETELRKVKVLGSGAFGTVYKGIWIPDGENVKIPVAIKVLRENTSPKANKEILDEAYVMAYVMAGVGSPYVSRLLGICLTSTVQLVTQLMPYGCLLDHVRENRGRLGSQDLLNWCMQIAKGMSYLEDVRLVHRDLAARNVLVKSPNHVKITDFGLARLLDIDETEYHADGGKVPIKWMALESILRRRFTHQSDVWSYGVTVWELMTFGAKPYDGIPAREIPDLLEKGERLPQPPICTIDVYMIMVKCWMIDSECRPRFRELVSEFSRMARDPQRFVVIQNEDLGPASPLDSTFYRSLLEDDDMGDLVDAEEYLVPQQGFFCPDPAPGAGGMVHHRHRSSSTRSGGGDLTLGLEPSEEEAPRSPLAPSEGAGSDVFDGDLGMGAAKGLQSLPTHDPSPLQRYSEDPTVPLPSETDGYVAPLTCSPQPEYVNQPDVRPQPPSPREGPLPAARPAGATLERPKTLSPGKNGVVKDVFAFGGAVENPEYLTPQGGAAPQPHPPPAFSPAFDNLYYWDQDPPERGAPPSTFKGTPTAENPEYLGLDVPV
Chain of EGFR(D770_N771insSVD) expressing Ba/F3 stable cell line (P00533 with tags, fused parts or gaps DUP768-770): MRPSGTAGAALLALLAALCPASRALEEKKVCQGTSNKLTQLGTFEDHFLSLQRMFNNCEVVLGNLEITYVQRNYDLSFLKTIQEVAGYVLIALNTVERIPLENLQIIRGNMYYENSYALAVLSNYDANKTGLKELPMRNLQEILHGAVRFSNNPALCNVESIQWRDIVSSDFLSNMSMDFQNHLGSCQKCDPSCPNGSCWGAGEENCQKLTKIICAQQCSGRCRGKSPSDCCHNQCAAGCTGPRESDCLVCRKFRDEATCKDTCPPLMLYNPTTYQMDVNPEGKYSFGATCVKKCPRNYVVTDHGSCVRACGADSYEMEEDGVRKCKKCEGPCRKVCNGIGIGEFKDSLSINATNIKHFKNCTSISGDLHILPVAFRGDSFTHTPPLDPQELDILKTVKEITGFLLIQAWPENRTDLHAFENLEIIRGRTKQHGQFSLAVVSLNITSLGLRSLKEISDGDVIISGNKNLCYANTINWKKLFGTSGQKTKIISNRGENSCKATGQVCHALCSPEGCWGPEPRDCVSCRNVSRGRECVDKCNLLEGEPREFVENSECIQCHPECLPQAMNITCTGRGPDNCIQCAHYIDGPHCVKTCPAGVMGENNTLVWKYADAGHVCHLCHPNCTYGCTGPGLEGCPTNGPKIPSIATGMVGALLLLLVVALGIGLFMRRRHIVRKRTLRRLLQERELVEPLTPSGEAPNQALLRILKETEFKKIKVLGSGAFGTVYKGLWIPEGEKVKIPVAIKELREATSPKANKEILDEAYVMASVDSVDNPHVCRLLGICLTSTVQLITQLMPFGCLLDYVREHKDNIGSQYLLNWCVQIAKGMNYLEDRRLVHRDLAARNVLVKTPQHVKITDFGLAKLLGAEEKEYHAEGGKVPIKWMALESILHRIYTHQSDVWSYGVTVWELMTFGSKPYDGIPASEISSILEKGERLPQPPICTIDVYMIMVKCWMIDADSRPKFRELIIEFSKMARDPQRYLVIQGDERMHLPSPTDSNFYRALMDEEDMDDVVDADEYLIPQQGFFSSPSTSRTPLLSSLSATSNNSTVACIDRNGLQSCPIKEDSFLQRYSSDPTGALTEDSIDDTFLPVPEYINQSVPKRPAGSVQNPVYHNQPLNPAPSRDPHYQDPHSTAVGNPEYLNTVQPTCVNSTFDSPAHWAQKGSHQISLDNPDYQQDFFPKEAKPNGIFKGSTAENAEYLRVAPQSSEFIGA
Chain of EGFR (A767_dupASV) expressing Ba/F3 stable cell line (P00533 with tags, fused parts or gaps DUP767-769): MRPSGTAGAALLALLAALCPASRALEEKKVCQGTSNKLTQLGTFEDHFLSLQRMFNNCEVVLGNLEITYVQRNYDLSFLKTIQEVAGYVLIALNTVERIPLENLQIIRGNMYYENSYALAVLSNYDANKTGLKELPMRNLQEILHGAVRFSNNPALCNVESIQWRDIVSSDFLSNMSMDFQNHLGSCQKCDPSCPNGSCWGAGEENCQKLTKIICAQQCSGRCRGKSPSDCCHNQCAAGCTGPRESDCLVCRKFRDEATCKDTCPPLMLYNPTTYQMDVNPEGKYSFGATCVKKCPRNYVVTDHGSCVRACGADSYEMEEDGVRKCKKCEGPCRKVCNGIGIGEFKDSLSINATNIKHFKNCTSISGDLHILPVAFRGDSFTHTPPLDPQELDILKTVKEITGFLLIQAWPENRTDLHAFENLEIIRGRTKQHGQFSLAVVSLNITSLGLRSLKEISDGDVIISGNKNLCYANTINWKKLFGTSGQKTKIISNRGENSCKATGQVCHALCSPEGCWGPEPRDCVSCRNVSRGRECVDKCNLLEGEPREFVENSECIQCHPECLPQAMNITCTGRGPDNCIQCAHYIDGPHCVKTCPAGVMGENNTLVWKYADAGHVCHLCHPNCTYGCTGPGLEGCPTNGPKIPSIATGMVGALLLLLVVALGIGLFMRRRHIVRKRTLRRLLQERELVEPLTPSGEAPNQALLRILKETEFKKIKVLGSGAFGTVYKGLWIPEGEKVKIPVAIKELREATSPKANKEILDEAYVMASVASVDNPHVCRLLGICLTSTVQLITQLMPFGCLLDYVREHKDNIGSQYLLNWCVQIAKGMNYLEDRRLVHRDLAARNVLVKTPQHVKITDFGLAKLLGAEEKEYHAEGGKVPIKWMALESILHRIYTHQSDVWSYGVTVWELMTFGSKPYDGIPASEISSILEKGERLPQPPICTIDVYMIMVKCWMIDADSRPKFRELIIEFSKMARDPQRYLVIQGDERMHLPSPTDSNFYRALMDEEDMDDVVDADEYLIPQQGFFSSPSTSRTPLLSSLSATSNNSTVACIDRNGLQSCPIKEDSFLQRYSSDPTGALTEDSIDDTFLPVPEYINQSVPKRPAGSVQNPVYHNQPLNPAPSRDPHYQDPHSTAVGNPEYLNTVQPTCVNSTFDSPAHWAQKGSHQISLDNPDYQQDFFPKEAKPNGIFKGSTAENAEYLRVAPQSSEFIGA

| Compound | IC50 (A431 cells; [4]) [nM] | GI50 [1] [nM] | GI50 [2] [nM] | GI50 [3] [nM] | IC50 (A431 cells; [5]) [nM] |
| --- | --- | --- | --- | --- | --- |
| C=CC(=O)Nc1cccc(F)c1CNc1nc(Nc2cnn(C)c2)ncc1Cl [Compound 173, N-(2-(((5-chloro-2-((1-methyl-1H-pyrazol-4-yl)amino)pyrimidin-4-yl)amino)methyl)-3-fluorophenyl)acrylamide] | > 10000 | 9780 | > 10000 | 2000 | – |
| C=CC(=O)Nc1ccc(-c2ccccc2)c(Nc2ccnc(Nc3cnn(C)c3)n2)c1 [Compound 175, N-[2-({2-[(1-methyl-1H-pyrazol-4-yl)amino]pyrimidin-4-yl}amino)-[1,1′-biphenyl]-4-yl]prop-2-enamide] | > 10000 | > 10000 | > 10000 | > 10000 | – |
| CN(C)C/C=C/C(=O)Nc1ccc(-c2ccccc2)c(Nc2ccnc(Nc3cnn(C)c3)n2)c1 [Compound 176, (E)-4-(dimethylamino)-N-(2-((2-((1-methyl-1H-pyrazol-4-yl)amino)pyrimidin-4-yl)amino)-[1,1′-biphenyl]-4-yl)but-2-enamide] | > 10000 | > 10000 | 8020 | > 10000 | – |
| C=CC(=O)Nc1ccc(-c2ccccc2)c(Nc2nc(Nc3cnn(C)c3)ncc2Cl)c1 [Compound 177, N-(2-((5-chloro-2-((1-methyl-1H-pyrazol-4-yl)amino)pyrimidin-4-yl)amino)-[1,1′-biphenyl]-4-yl)acrylamide] | > 10000 | > 10000 | > 10000 | > 10000 | – |
| CN(C)C/C=C/C(=O)Nc1ccc(C#Cc2ccccc2)c(Nc2nc(Nc3cnn(C)c3)ncc2Cl)c1 [Compound 179, (E)-N-(3-((5-chloro-2-((1-methyl-1H-pyrazol-4-yl)amino)pyrimidin-4-yl)amino)-4-(phenylethynyl)phenyl)-4-(dimethylamino)but-2-enamide] | > 10000 | > 10000 | > 10000 | 4030 | – |
| C=CC(=O)Nc1ccc(F)c(Nc2nc(Nc3cnn(C)c3)ncc2-c2cccc(Br)c2)c1 [Compound 201, N-(3-((5-(3-bromophenyl)-2-((1-methyl-1H-pyrazol-4-yl)amino)pyrimidin-4-yl)amino)-4-fluorophenyl)acrylamide] | – | 270 | 227 | 424 | 1520 |
| C=CC(=O)Nc1cccc(Nc2nc(Nc3cnn(C)c3)ncc2-c2ccc(Br)cc2)c1F [Compound 202, N-(3-((5-(4-bromophenyl)-2-((1-methyl-1H-pyrazol-4-yl)amino)pyrimidin-4-yl)amino)-2-fluorophenyl)acrylamide] | – | 35 | 34 | 217 | 44 |
| C=CC(=O)Nc1ccc(F)c(Nc2nc(Nc3cn(C)nc3Cl)ncc2-c2ccc(Br)cc2)c1 [Compound 204, N-(3-((5-(4-bromophenyl)-2-((3-chloro-1-methyl-1H-pyrazol-4-yl)amino)pyrimidin-4-yl)amino)-4-fluorophenyl)acrylamide] | – | 93 | 131 | 688 | 28 |
| C=CC(=O)Nc1ccc(F)c(Nc2nc(Nc3cnn(C4COC4)c3)ncc2-c2ccc(Br)cc2)c1 [Compound 205, N-(3-((5-(4-bromophenyl)-2-((1-(oxetan-3-yl)-1H-pyrazol-4-yl)amino)pyrimidin-4-yl)amino)-4-fluorophenyl)acrylamide] | – | 39 | 73 | 278 | 132 |
| C=CC(=O)Nc1ccc(F)c(Nc2nc(Nc3cnn(CCO)c3)ncc2-c2ccc(Br)cc2)c1 [Compound 206, N-(3-((5-(4-bromophenyl)-2-((1-(2-hydroxyethyl)-1H-pyrazol-4-yl)amino)pyrimidin-4-yl)amino)-4-fluorophenyl)acrylamide] | – | 35 | 44 | 120 | 36 |
